Reference: US4197286A, “Testosterone derivatives and assay method” (Southwest Research Institute, priority 1977, dated 1980)

Each compound was assayed on anti-testosterone serum from rabbit No. X-181 (assay: Cross-reactivity of structurally similar steroids with the anti-testosterone serum). Settings: antiserum of rabbit X-181; testosterone = 100.
Type: binding
Description: Also, the cross-reactivity of pertinent and structurally similar steroids was determined to be as follows:

SMILES	% CROSS-REACTIVITY [%]
C[C@]12CC[C@H]3[C@@H](CC=C4C[C@@H](O)CC[C@@]43C)[C@@H]1CC[C@@H]2O [5-Androstene-3β,17β-diol]	0.51
C[C@]12CC[C@@H](O)C[C@@H]1CC[C@@H]1[C@@H]2CC[C@]2(C)[C@@H](O)CC[C@@H]12 [5α-Androstane-3α, 17β-diol]	0.00
C[C@]12CC[C@H](O)C[C@@H]1CC[C@@H]1[C@@H]2CC[C@]2(C)[C@@H](O)CC[C@@H]12 [5α-Androstane-3β,17β-diol]	2.19
C[C@]12CCC(=O)C[C@@H]1CC[C@@H]1[C@@H]2CC[C@]2(C)[C@@H](O)CC[C@@H]12 [5α-Dihydrotestosterone]	6.65
C[C@]12CCC(=O)C[C@H]1CC[C@@H]1[C@@H]2CC[C@]2(C)C(=O)CC[C@@H]12 [5β-Androstane-3,17-dione]	0.00
C[C@]12CCC(=O)C[C@H]1CC[C@@H]1[C@@H]2CC[C@]2(C)[C@@H](O)CC[C@@H]12 [5β-Dihydrotestosterone]	0.63
C[C@]12CC[C@H]3[C@@H](C[C@H](O)C4=CC(=O)CC[C@@]43C)[C@@H]1CC[C@@H]2O [6α-Hydroxytestosterone]	0.75
C[C@]12CCC(=O)C=C1CC[C@@H]1[C@@H]2[C@@H](O)C[C@]2(C)C(=O)CC[C@@H]12 [11β-Hydroxyandrostenodione]	0.00
C[C@]12C[C@H](O)[C@H]3[C@@H](CCC4=CC(=O)CC[C@@]43C)[C@@H]1CC[C@@H]2O [11β-Hydroxytestosterone]	0.00
C[C@]12CC(=O)[C@H]3[C@@H](CCC4=CC(=O)CC[C@@]43C)[C@@H]1CC[C@@H]2O [11β-Oxotestosterone]	1.80
C[C@]12CCC(=O)C=C1CC[C@@H]1[C@@H]2CC[C@]2(C)C(=O)CC[C@@H]12 [Androstenedione]	0.90
C[C@]12CC[C@@H](O)C[C@@H]1CC[C@@H]1[C@@H]2CC[C@]2(C)C(=O)CC[C@@H]12 [Androsterone]	0.00
C[C@]12C[C@H](O)[C@H]3[C@@H](CCC4=CC(=O)CC[C@@]43C)[C@@H]1CC[C@@H]2C(=O)CO [Corticosterone]	0.00
C[C@]12CC[C@H](O)CC1=CC[C@@H]1[C@@H]2CC[C@]2(C)C(=O)CC[C@@H]12 [Dehydroepiandrosterone]	0.00
C[C@]12CC[C@H]3[C@@H](CCC4=CC(=O)CC[C@@]43C)[C@@H]1CC[C@@H]2C(=O)CO [Deoxycorticosterone]	0.00
C[C@]12CC[C@H](O)C[C@@H]1CC[C@@H]1[C@@H]2CC[C@]2(C)C(=O)CC[C@@H]12 [Epiandrosterone]	0.19
C[C@]12CC[C@@H]3c4ccc(O)cc4CC[C@H]3[C@@H]1CC[C@@H]2O [Estradiol]	0.43
C[C@]12CC[C@@H]3c4ccc(O)cc4CC[C@H]3[C@@H]1C[C@@H](O)[C@@H]2O [Estriol]	0.00
C[C@]12CC[C@@H]3c4ccc(O)cc4CC[C@H]3[C@@H]1CCC2=O [Estrone]	0.00
CC(=O)[C@H]1CC[C@H]2[C@@H]3CCC4=CC(=O)CC[C@]4(C)[C@H]3CC[C@]12C [Progesterone]	0.00
C[C@]12CC[C@H]3[C@@H](CCC4=CC(=O)CC[C@@]43C)[C@@H]1CC[C@@H]2O [Testosterone]	100.00
